In patent US20100061948A1, “COMPOSITION FOR SKIN WHITENING COMPRISING ARTEMISININE” (priority 2007, published 2010):

Columns and labels:
tyrosinase = molecular target: T1, tyrosinase (Mus musculus, UniProt P11344); test: Inhibitory effect on tyrosinase activity in murine B16 melanoma cells; format: cell-based; conditions: B16 F10 cells, 3 days, read-out: Inhibition rate of tyrosinase activity (%)
T1 construct: endogenous in cells; host or cells: murine melanoma B16 F10 cells
T1 sequence (P11344 19-533): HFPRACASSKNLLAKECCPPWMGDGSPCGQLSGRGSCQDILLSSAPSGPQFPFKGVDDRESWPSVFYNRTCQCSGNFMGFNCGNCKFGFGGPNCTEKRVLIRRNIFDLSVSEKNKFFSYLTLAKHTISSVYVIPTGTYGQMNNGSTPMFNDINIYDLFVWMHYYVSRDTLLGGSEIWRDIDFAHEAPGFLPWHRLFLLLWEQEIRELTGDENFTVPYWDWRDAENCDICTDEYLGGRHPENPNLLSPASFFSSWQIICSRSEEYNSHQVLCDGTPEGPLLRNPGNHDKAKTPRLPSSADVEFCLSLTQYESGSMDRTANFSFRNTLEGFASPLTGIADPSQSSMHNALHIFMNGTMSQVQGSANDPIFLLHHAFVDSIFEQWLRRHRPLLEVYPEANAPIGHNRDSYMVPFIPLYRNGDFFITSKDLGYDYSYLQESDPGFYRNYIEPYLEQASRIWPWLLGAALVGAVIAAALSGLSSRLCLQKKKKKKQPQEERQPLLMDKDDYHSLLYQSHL
Protocol: In order to confirm the inhibitory effect of artemisinine on tyrosinase activity, murine B16 melanoma cells were used to perform the following experiment.
Murine melanoma (B16 F10) cells were inoculated on 6 well plates containing DMEM media supplemented with 10% FBS (1×10^5 per well), and cultured in 5% CO2 at 37° C. until reaching about 80% confluency. Then, media was removed from the cells, replaced with fresh media, and cultured in 5% CO2 at37° C. for 3 days. […] Media was removed from the cells, and the cells were washed with PBS, followed by trypsin treatment. The cells were recovered, and counted using a hematocytometer. Then, the cells were centrifuged at 5,000 to 10,000 rpm for 10 min, and the supernatant was removed to obtain a pellet. The pellet was suspended in a lysis buffer, and centrifuged at 12,000 rpm for 10 min to collect the supernatant. Absorbance was determined at 492 nm using a microplate reader to assess the tyrosinase activity per cell. As a control group, arbutin was used.

[1] = tested on: Murine melanoma (B16 F10) cells; test: Inhibitory effect on melanin synthesis in murine B16 melanoma cells; format: cell-based; conditions: Mus musculus, 72 h, 3 days, read-out: Inhibition rate of melanin synthesis (%)
Protocol: In order to confirm the inhibitory effect of artemisinine on melanin synthesis, murine B16 melanoma cells were used to perform the following experiment.
Artemisinine used in the present experiment was purchased from Sigma.
Murine melanoma (B16 F10) cells were inoculated on 6 well plates containing DMEM media supplemented with 10% FBS (fetal bovine serum) (1×10^5 per well), and cultured in 5% CO2 at37° C. until reaching about 80% confluency. Then, media was removed from the cells, replaced with fresh media, and cultured in 5% CO2 at 37° C. for 3 days. […] Media was removed from the cells, and the cells were washed with PBS (phosphate buffered saline), followed by trypsin treatment. The cells were recovered, and counted using a hemocytometer. Then, the cells were centrifuged at 5,000 to 10,000 rpm for 10 min, and the supernatant was removed to obtain a pellet. The pellet was dried at 60° C., and suspended in 100 […] of 1 M sodium hydroxide solution containing 10% DMSO in a 60° C. water bath to obtain melanin in the cells. Absorbance was determined at 490 nm using a microplate reader to assess the melanin content per cell. As a control group, a known inhibitor of melanin synthesis, arbutin, was used.

[2] = tested on: brown guinea pigs (Tortoiseshell guinea pigs); test: Whitening effect on UV-induced pigmentation in brown guinea pigs (chromameter L*); format: in vivo; conditions: topical once or twice a day for 50 days, UV-pigmented guinea pig skin
Excerpt: In order to confirm the whitening effect of artemisinine in animals, brown guinea pigs (Tortoiseshell guinea pigs), which are known to increase pigmentation upon exposure to UV like human, were used to perform the following experiment.
(§1) To cause pigmentation in the brown guinea pig by UV, light-shielding aluminum foil with windows of 3×3 cm^2 was adhered to hair-removed abdominal skin of brown guinea pig, and then UV light was irradiated thereon with a SE lamp (wavelength 290-320 nm, Toshiba) (total irradiation energy=1350 mJ/cm^2). After UV irradiation, the aluminum foil was removed, and then the samples (artemisinine and arbutin) were applied as follows. […] From the maximum, each sample was applied. Applications were performed once or twice a day for 50 days. The samples were dissolved and diluted in a certain solvent (a mixed solvent of propylene glycol:ethanol:water=5:3:2) and applied with a swab. Another region was applied with the solvent only as a control. Occurrence of cumulative irritation also was examined.
The degree of skin pigmentation was determined using a chromameter (MINOLTA CR2002) to evaluate the effects. L*A*B* colorimetric system is used to classify color, and an L* value was used as standard in the present invention. The L* value was corrected using white board standard, and measured more than five times at one region, repeatedly. Pigmentation was evenly distributed. Skin color differences (ΔL*) between initial application point and terminal application point were obtained by using the following Mathematical Equation 1, and then using these values, their effects of the applied samples were evaluated.
ΔL*=L*value at terminal application day−L*value at initial application day [Mathematical Equation 1]
ΔL* values were obtained at sample application region and control application region and compared. From the result, the whitening effects of the samples can be evaluated.

[3] = tested on: Murine melanoma (B16 F10) cells; test: Cytotoxicity at treatment concentrations in B16 F10 cells; format: cell-based; conditions: 10 μM, 50 μM and 100 μM
[4] = tested on: brown guinea pigs (Tortoiseshell guinea pigs); test: Cumulative irritation examined in brown guinea pigs; format: in vivo; conditions: topical application for 50 days, guinea pig
Excerpt: as §1

In the case of `OC[C@H]1O[C@@H](Oc2ccc(O)cc2)[C@H](O)[C@@H](O)[C@@H]1O` [Arbutin, arbutin], the inhibition at 100 µM (tyrosinase) is reported as 45%, the inhibition at 100 µM [1] is reported as 52% and the “Whitening effect (ΔL*)” value ([2]; 1.0 %) is reported as 0.55.

`C[C@@H]1CC[C@H]2[C@@H](C)C(=O)O[C@@H]3O[C@@]4(C)CC[C@@H]1[C@]32OO4` [Artemisinine, artemisinine] was tested, and the Cytotoxicity [3] was “no cytotoxicity”, the Cumulative irritation [4] was “no cumulative irritation” and the inhibition at 10 µM (tyrosinase; 10 μM) was 19%. The inhibition at 50 µM (tyrosinase; 50 μM) was 38%, the inhibition at 100 µM (tyrosinase) was 67% and the inhibition at 10 µM ([1]; 10 μM) was 22%. The inhibition at 50 µM ([1]; 50 μM) was 50%, the inhibition at 100 µM [1] was 65% and the “Whitening effect (ΔL*)” value ([2]; 0.2 %) was 0.40. For the same molecule, the “Whitening effect (ΔL*)” value ([2]; 1.0 %) was 0.65.
